# Measurements taken from article PMC11277489, “Novel Piperazine Derivatives of Vindoline as Anticancer Agents” (International Journal of Molecular Sciences, 2024).
# How the values were obtained:
# [1] = system: CCRF-CEM; experiment: NCI60 five-dose screen, Leukemia; assay type: cell-based; details: Homo sapiens, Leukemia, five-dose screen, read-out: GI50
# [2] = system: HL-60(TB); experiment: NCI60 five-dose screen, Leukemia; assay type: cell-based; details: Homo sapiens; HL-60(TB), Leukemia; five-dose screen; read-out: GI50
# [3] = system: HOP-92; experiment: NCI60 five-dose screen, Non-small Cell Lung Cancer; assay type: cell-based; details: Homo sapiens; HOP-92, Non-small Cell Lung Cancer; five-dose screen; read-out: GI50
# [4] = system: NCI-H226; experiment: NCI60 five-dose screen, Non-small Cell Lung Cancer; assay type: cell-based; details: Homo sapiens; NCI-H226, Non-small Cell Lung Cancer; five-dose screen; read-out: GI50
# [5] = system: NCI-H23; experiment: NCI60 five-dose screen, Non-small Cell Lung Cancer; assay type: cell-based; details: Homo sapiens; NCI-H23, Non-small Cell Lung Cancer; five-dose screen; read-out: GI50
# [6] = system: NCI-H460; experiment: NCI60 five-dose screen, Non-small Cell Lung Cancer; assay type: cell-based; details: Homo sapiens; NCI-H460, Non-small Cell Lung Cancer; five-dose screen; read-out: GI50
# [7] = system: NCI-H522; experiment: NCI60 five-dose screen, Non-small Cell Lung Cancer; assay type: cell-based; details: Homo sapiens; NCI-H522, Non-small Cell Lung Cancer; five-dose screen; read-out: GI50
# [8] = system: COLO 205; experiment: NCI60 five-dose screen, Colon Cancer; assay type: cell-based; details: Homo sapiens; COLO 205, Colon Cancer; five-dose screen; read-out: GI50
# [9] = system: HCC-2998; experiment: NCI60 five-dose screen, Colon Cancer; assay type: cell-based; details: Homo sapiens; HCC-2998, Colon Cancer; five-dose screen; read-out: GI50
# [10] = system: KM12; experiment: NCI60 five-dose screen, Colon Cancer; assay type: cell-based; details: Homo sapiens; KM12, Colon Cancer; five-dose screen; read-out: GI50
# [11] = system: SW-620; experiment: NCI60 five-dose screen, Colon Cancer; assay type: cell-based; details: Homo sapiens; SW-620, Colon Cancer; five-dose screen; read-out: GI50
# [12] = system: SNB-75; experiment: NCI60 five-dose screen, CNS Cancer; assay type: cell-based; details: Homo sapiens; SNB-75, CNS Cancer; five-dose screen; read-out: GI50
# [13] = system: MALME-3M; experiment: NCI60 five-dose screen, Melanoma; assay type: cell-based; details: Homo sapiens; MALME-3M, Melanoma; five-dose screen; read-out: GI50
# [14] = system: IGROV1; experiment: NCI60 five-dose screen, Ovarian Cancer; assay type: cell-based; details: Homo sapiens, IGROV-1; IGROV1, Ovarian Cancer; five-dose screen; read-out: GI50
# [15] = system: OVCAR-3; experiment: NCI60 five-dose screen, Ovarian Cancer; assay type: cell-based; details: Homo sapiens; OVCAR-3, Ovarian Cancer; five-dose screen; read-out: GI50
# [16] = system: OVCAR-5; experiment: NCI60 five-dose screen, Ovarian Cancer; assay type: cell-based; details: Homo sapiens; OVCAR-5, Ovarian Cancer; five-dose screen; read-out: GI50
# [17] = system: NCI/ADR-RES; experiment: NCI60 five-dose screen, Ovarian Cancer; assay type: cell-based; details: Homo sapiens, Ovarian Cancer, five-dose screen, read-out: GI50
# [18] = system: SK-OV-3; experiment: NCI60 five-dose screen, Ovarian Cancer; assay type: cell-based; details: Homo sapiens; SK-OV-3, Ovarian Cancer; five-dose screen; read-out: GI50
# [19] = system: 786–0; experiment: NCI60 five-dose screen, Renal Cancer; assay type: cell-based; details: Homo sapiens; 786–0, Renal Cancer; five-dose screen; read-out: GI50
# [20] = system: A498; experiment: NCI60 five-dose screen, Renal Cancer; assay type: cell-based; details: Homo sapiens; A498, Renal Cancer; five-dose screen; read-out: GI50
# [21] = system: ACHN; experiment: NCI60 five-dose screen, Renal Cancer; assay type: cell-based; details: Homo sapiens, Renal Cancer, five-dose screen, read-out: GI50
# [22] = system: CAKI-1; experiment: NCI60 five-dose screen, Renal Cancer; assay type: cell-based; details: Homo sapiens; CAKI-1, Renal Cancer; five-dose screen; read-out: GI50
# [23] = system: SN12C; experiment: NCI60 five-dose screen, Renal Cancer; assay type: cell-based; details: Homo sapiens, Renal Cancer, five-dose screen, read-out: GI50
# [24] = system: TK-10; experiment: NCI60 five-dose screen, Renal Cancer; assay type: cell-based; details: Homo sapiens; TK-10, Renal Cancer; five-dose screen; read-out: GI50
# [25] = system: DU-145; experiment: NCI60 five-dose screen, Prostate Cancer; assay type: cell-based; details: Homo sapiens; DU-145, Prostate Cancer; five-dose screen; read-out: GI50
# [26] = system: MCF7; experiment: NCI60 five-dose screen, Breast Cancer; assay type: cell-based; details: Homo sapiens; MCF7, Breast Cancer; five-dose screen; read-out: GI50
# [27] = system: T-47D; experiment: NCI60 five-dose screen, Breast Cancer; assay type: cell-based; details: Homo sapiens, T47D; T-47D, Breast Cancer; five-dose screen; read-out: GI50
# [28] = system: SR; experiment: NCI60 one-dose screen (10 μM), Leukemia; assay type: cell-based; details: Homo sapiens, 10 μM, Leukemia, read-out: Growth percent rate
# [29] = system: HOP-92; experiment: NCI60 one-dose screen (10 μM), Non-small Cell Lung Cancer; assay type: cell-based; details: Homo sapiens; 10 μM; HOP-92, Non-small Cell Lung Cancer; read-out: Growth percent rate
# [30] = system: NCI-H226; experiment: as above; assay type: cell-based; details: Homo sapiens; 10 μM; NCI-H226, Non-small Cell Lung Cancer; read-out: Growth percent rate
# [31] = system: COLO 205; experiment: NCI60 one-dose screen (10 μM), Colon Cancer; assay type: cell-based, human
# [32] = system: HCT-15; experiment: NCI60 one-dose screen (10 μM), Colon Cancer; assay type: cell-based; details: Homo sapiens; 10 μM; HCT-15, Colon Cancer; read-out: Growth percent rate
# [33] = system: SF-539; experiment: NCI60 one-dose screen (10 μM), CNS Cancer; assay type: cell-based, human
# [34] = system: LOX IMVI; experiment: NCI60 one-dose screen (10 μM), Melanoma; assay type: cell-based, human; details: Homo sapiens; 10 μM; LOX IMVI, Melanoma; read-out: Growth percent rate
# [35] = system: UACC-62; experiment: NCI60 one-dose screen (10 μM), Melanoma; assay type: cell-based; details: Homo sapiens; 10 μM; UACC-62, Melanoma; read-out: Growth percent rate
# [36] = system: OVCAR-5; experiment: NCI60 one-dose screen (10 μM), Ovarian Cancer; assay type: cell-based; details: Homo sapiens; 10 μM; OVCAR-5, Ovarian Cancer; read-out: Growth percent rate
# [37] = system: NCI/ADR-RES; experiment: NCI60 one-dose screen (10 μM), Ovarian Cancer; assay type: cell-based; details: Homo sapiens, 10 μM, Ovarian Cancer, read-out: Growth percent rate
# [38] = system: SK-OV-3; experiment: NCI60 one-dose screen (10 μM), Ovarian Cancer; assay type: cell-based; details: Homo sapiens; 10 μM; SK-OV-3, Ovarian Cancer; read-out: Growth percent rate
# [39] = system: RXF 393; experiment: NCI60 one-dose screen (10 μM), Renal Cancer; assay type: cell-based, human
# [40] = system: UO-31; experiment: NCI60 one-dose screen (10 μM), Renal Cancer; assay type: cell-based; details: Homo sapiens; 10 μM; UO-31, Renal Cancer; read-out: Growth percent rate
# [41] = system: PC-3; experiment: NCI60 one-dose screen (10 μM), Prostate Cancer; assay type: cell-based; details: Homo sapiens; 10 μM; PC-3, Prostate Cancer; read-out: Growth percent rate
# [42] = system: MDA-MB-231/ATCC; experiment: NCI60 one-dose screen (10 μM), Breast Cancer; assay type: cell-based, human; details: Homo sapiens; 10 μM; MDA-MB-231/ATCC, Breast Cancer; read-out: Growth percent rate
# [43] = system: HS 578T; experiment: NCI60 one-dose screen (10 μM), Breast Cancer; assay type: cell-based; details: Homo sapiens; 10 μM; HS 578T, Breast Cancer; read-out: Growth percent rate
# [44] = system: BT-549; experiment: NCI60 one-dose screen (10 μM), Breast Cancer; assay type: cell-based; details: Homo sapiens; 10 μM; BT-549, Breast Cancer; read-out: Growth percent rate
# [45] = system: T-47D; experiment: NCI60 one-dose screen (10 μM), Breast Cancer; assay type: cell-based; details: Homo sapiens, T47D; 10 μM; T-47D, Breast Cancer; read-out: Growth percent rate
# [46] = system: MDA-MB-468; experiment: NCI60 one-dose screen (10 μM), Breast Cancer; assay type: cell-based; details: Homo sapiens; 10 μM; MDA-MB-468, Breast Cancer; read-out: Growth percent rate
smiles,measurement,setting,value
CC[C@]12C=CCN3CC[C@@]4(c5ccc(OC)cc5N(C)[C@H]4[C@@](O)(C(=O)OC)[C@@H]1OC(=O)CCCN1CCN(c4ccc(C(F)(F)F)cc4)CC1)[C@@H]32 [Compound 22],GI50,[1],1860 nM
same,GI50,[2],1660 nM
same,GI50,[3],1950 nM
same,GI50,[4],2880 nM
same,GI50,[5],4570 nM
same,GI50,[6],1860 nM
same,GI50,[7],1910 nM
same,GI50,[8],1780 nM
same,GI50,[9],1820 nM
same,GI50,[10],2140 nM
same,GI50,[11],2950 nM
same,GI50,[12],1660 nM
same,GI50,[13],1580 nM
same,GI50,[14],2000 nM
same,GI50,[15],2450 nM
same,GI50,[16],4070 nM
same,GI50,[17],2290 nM
same,GI50,[18],3720 nM
same,GI50,[19],2570 nM
same,GI50,[20],3720 nM
same,GI50,[21],3240 nM
same,GI50,[22],2240 nM
same,GI50,[23],2630 nM
same,GI50,[24],2880 nM
same,GI50,[25],2880 nM
same,GI50,[26],2000 nM
same,GI50,[27],3020 nM
same,activity at 10 µM,[28],14.2%
same,activity at 10 µM,[29],-30.9%
same,activity at 10 µM,[30],-50.7%
same,growth percent rate,"[31]; 10 μM one-dose, COLO-205 colon cancer, negative = lethality",−93.46%
same,activity at 10 µM,"[31]; Homo sapiens, 10 μM, COLO 205, Colon Cancer, read-out: Growth percent rate",-93.5%
same,activity at 10 µM,[32],-82.9%
same,growth percent rate,"[33]; 10 μM one-dose, SF-539 CNS cancer, negative = lethality",−96.98%
same,activity at 10 µM,"[33]; Homo sapiens, 10 μM, SF-539, CNS Cancer, read-out: Growth percent rate",-97%
same,activity at 10 µM,[34],-97.2%
same,activity at 10 µM,[35],-90.9%
same,activity at 10 µM,[36],-31.1%
same,activity at 10 µM,[37],-10.9%
same,activity at 10 µM,[38],23.6%
same,growth percent rate,"[39]; 10 μM one-dose, RXF-393 renal cancer, negative = lethality",−91.93%
same,activity at 10 µM,"[39]; Homo sapiens, 10 μM, RXF 393, Renal Cancer, read-out: Growth percent rate",-91.9%
same,activity at 10 µM,[40],2.06%
same,activity at 10 µM,[41],-25.4%
same,activity at 10 µM,[42],-67.4%
same,activity at 10 µM,[43],-46.2%
same,activity at 10 µM,[44],-69.1%
same,activity at 10 µM,[45],-11.4%
same,activity at 10 µM,[46],-83.4%
